Values of other authors as cited in patent publication US20250375404A1, “AN ORODISPERSIBLE PHARMACEUTICAL COMPOSITION OF BACLOFEN AND ITS PROCESS OF PREPARATION” (NOVUMGEN LIMITED, priority 2022, published 2025).

Conditions: in vivo

SMILES: NCC(CC(=O)O)c1ccc(Cl)cc1 (stereo not shown) [Baclofen]
- Absorption from the gastro-intestinal tract: rapidly and completely absorbed
